Values after ≈ are worked out from the molar mass of the structure shown.
Assays:
[1] = tested on: Salmonella typhosa KY4278 ATCC9992; experiment: MIC, agar dilution method, pH 8.0; format: cell-based; settings: Salmonella enterica, pH 8, read-out: Minimum inhibition concentration (MIC), ST
Procedure: (§1) Measurement was carried out according to the agar dilution method, using a medium of pH 8.0, or the Japanese Antibiotic Medicament Standard, using a medium of pH 7.2 Units are in mcg/ml.
S.T.: Salmonella typhosa KY4278 ATCC9992

[2] = tested on: Pseudomonas aeruginosa R5 KY8512; experiment: MIC, agar dilution method, pH 7.2; format: cell-based; settings: R5KY8512, pH 7.2, P. aeruginosa R5 KY8512, 6**: neomycin, producing phosphotransferase type I and type II, read-out: Minimum inhibition concentration (MIC)
Procedure: as §1
6: neomycin, producing phosphotransferase type I and type II.

[3] = tested on: Escherichia coli R19 KY8348; experiment: MIC, agar dilution method, pH 7.2; format: cell-based; settings: R19KY8348, pH 7.2, E. coli R19 KY8348, 4**: gentamicin, producing acetyltransferase type I, read-out: Minimum inhibition concentration (MIC)
Procedure: as §1
(§2) 4: gentamicin, producing acetyltransferase type I.

[4] = tested on: Pseudomonas aeruginosa R4 KY8511; experiment: MIC, agar dilution method, pH 7.2; format: cell-based; settings: R4KY8511, pH 7.2, P. aeruginosa R4 KY8511, 4**: gentamicin, producing acetyltransferase type I, read-out: Minimum inhibition concentration (MIC)
Procedure: as §1, §2

various microorganisms = experiment: Antibacterial activity (general statements); format: cell-based; settings: qualitative statement
Procedure: as §1

[5] = tested on: Eschericia coli KY4271 ATCC26; experiment: MIC, agar dilution method, pH 8.0; format: cell-based; settings: Escherichia coli, ATCC26; pH 8.0; E. coli KY4271; read-out: Minimum inhibition concentration (MIC), EC
Procedure: as §1
E.C.: Eschericia coli KY4271 ATCC26

[6] = tested on: Staphylococcus a ureus 226; experiment: MIC, agar dilution method, pH 7.2; format: cell-based, Staphylococcus aureus; settings: pH 7.2; Staphylococcus aureus 226; read-out: Minimum inhibition concentration (MIC)
Procedure: as §1

Proteus vulgaris JJ = experiment: MIC, agar dilution method, pH 7.2; format: cell-based; settings: pH 7.2; Proteus vulgaris JJ; read-out: Minimum inhibition concentration (MIC)
Procedure: as §1

[7] = tested on: Staphylococcus aureus Smith (A); experiment: MIC, agar dilution method, pH 7.2; format: cell-based; settings: pH 7.2; Staphylococcus aureus Smith (A); read-out: Minimum inhibition concentration (MIC)
Procedure: as §1

[8] = tested on: Eschericihia coli GN2411-5; experiment: MIC, agar dilution method, pH 7.2; format: cell-based; settings: Escherichia coli; pH 7.2; E. coli GN2411-5; read-out: Minimum inhibition concentration (MIC)
Procedure: as §1

Shigella sonnei ATCC9290 = experiment: MIC, agar dilution method, pH 7.2; format: cell-based; settings: read-out: Minimum inhibition concentration (MIC)
Procedure: as §1

[9] = tested on: Salmonella enteritidis G-14; experiment: MIC, agar dilution method, pH 7.2; format: cell-based; settings: Salmonella enterica; pH 7.2; Salmonella enteritidis G-14; read-out: Minimum inhibition concentration (MIC)
Procedure: as §1

Escherichia coli NIHTC-2 = experiment: MIC, agar dilution method, pH 7.2; format: cell-based; settings: NIHTC2; pH 7.2; Escherichia coli NIHTC-2; read-out: Minimum inhibition concentration (MIC)
Procedure: as §1

[10] = tested on: Staphylococcus aureus 209-P; experiment: MIC, agar dilution method, pH 7.2; format: cell-based; settings: pH 7.2; Staphylococcus aureus 209-P; read-out: Minimum inhibition concentration (MIC)
Procedure: as §1

[11] = tested on: Pseudomonas aeruginosa BMH# 1; experiment: MIC, agar dilution method, pH 7.2; format: cell-based; settings: pH 7.2; Pseudomonas aeruginosa BMH# 1; read-out: Minimum inhibition concentration (MIC)
Procedure: as §1

[12] = tested on: Pseudomonas aeruginosa UCLA 4184; experiment: MIC, agar dilution method, pH 7.2; format: cell-based; settings: UCLA4184; pH 7.2; Pseudomonas aeruginosa UCLA 4184; read-out: Minimum inhibition concentration (MIC)
Procedure: as §1

[13] = tested on: Klebsiella pneumoniae KY4274; experiment: MIC, agar dilution method, pH 7.2; format: cell-based; settings: pH 7.2; Klebsiella pneumoniae KY4274; read-out: Minimum inhibition concentration (MIC)
Procedure: as §1

[14] = tested on: Staphylococcus aureus KY4279 ATCC6538P; experiment: MIC, agar dilution method, pH 8.0; format: cell-based; settings: Staphylococcus aureus, pH 8, read-out: Minimum inhibition concentration (MIC), SA
Procedure: as §1
S.A.: Staphylococcus aureus KY4279 ATCC6538P

Eschericihia coli 3100 = experiment: MIC, agar dilution method, pH 7.2; format: cell-based, Escherichia coli; settings: Escherichia coli; pH 7.2; E. coli 3100; read-out: Minimum inhibition concentration (MIC)
Procedure: as §1

Providencia sp 164 = experiment: MIC, agar dilution method, pH 7.2; format: cell-based; settings: pH 7.2; Providencia sp 164; 7**: gentamicin, producing acetyltransferase type II; read-out: Minimum inhibition concentration (MIC)
Procedure: as §1
7: gentamicin, producing acetyltransferase type II.

Serratia marcescens 1065 = experiment: MIC, agar dilution method, pH 7.2; format: cell-based; settings: pH 7.2; Serratia marcescens 1065; 3**: kanamycin, producing acetyltransferase; read-out: Minimum inhibition concentration (MIC)
Procedure: as §1
(§3) 3: kanamycin, producing acetyltransferase.

[15] = tested on: Pseudomonas aeruginosa R9 KY8516; experiment: MIC, agar dilution method, pH 7.2; format: cell-based; settings: R9KY8516, pH 7.2, P. aeruginosa R9 KY8516, 3**: kanamycin, producing acetyltransferase, read-out: Minimum inhibition concentration (MIC)
Procedure: as §1, §3

[16] = tested on: Escherichia coli R17 Z343; experiment: MIC, agar dilution method, pH 7.2; format: cell-based; settings: R17Z343, pH 7.2, E. coli R17 Z343, 3**: kanamycin, producing acetyltransferase, read-out: Minimum inhibition concentration (MIC)
Procedure: as §1, §3

[17] = tested on: Escherichia coli R20 KY8349; experiment: MIC, agar dilution method, pH 7.2; format: cell-based; settings: R20KY8349, pH 7.2, E. coli R20 KY8349, 5**: neomycin, producing phosphotransferase type I, read-out: Minimum inhibition concentration (MIC)
Procedure: as §1
5: neomycin, producing phosphotransferase type I.

[18] = tested on: Escherichia coli R18 KY8321; experiment: MIC, agar dilution method, pH 7.2; format: cell-based; settings: R18KY8321, E. coli R18 KY8321, 2**: gentamicin, producing adenylsynthetase and neomycin phosphotransferase type II, read-out: Minimum inhibition concentration (MIC)
Procedure: as §1
2: gentamicin, producing adenylsynthetase and neomycin phosphotransferase

Bacillus subtilis KY4273 = experiment: MIC, agar dilution method, pH 8.0; format: cell-based; settings: Bacillus subtilis, KY4273, pH 8, read-out: Minimum inhibition concentration (MIC), BS
Procedure: as §1
B.S.: Bacillus subtilis KY4273

[19] = tested on: Proteus vulgaris KY4277 ATCC6897; experiment: MIC, agar dilution method, pH 8.0; format: cell-based; settings: ATCC6897; pH 8.0; Proteus vulgaris KY4277; read-out: Minimum inhibition concentration (MIC), PV
Procedure: as §1

[20] = tested on: Shigella sonnei KY4281 ATCC9290; experiment: MIC, agar dilution method, pH 8.0; format: cell-based; settings: ATCC9290; pH 8.0; Shigella sonnei KY4281; read-out: Minimum inhibition concentration (MIC), SS
Procedure: as §1

Escherichia coli 76-2 = experiment: MIC, agar dilution method, pH 7.2; format: cell-based; settings: Escherichia coli, 762; pH 7.2; E. coli 76-2; 1**: gentamicin, producing adenylsynthetase; read-out: Minimum inhibition concentration (MIC)
Procedure: as §1
(§4) **1: gentamicin, producing adenylsynthetase.

[21] = tested on: Escherichia coli R12 Z-338; experiment: MIC, agar dilution method, pH 7.2; format: cell-based; settings: R12Z338, pH 7.2, E. coli R12 Z-338, 1**: gentamicin, producing adenylsynthetase, read-out: Minimum inhibition concentration (MIC)
Procedure: as §1, §4

[22] = tested on: Klebsiella pneumoniae 3020 Y-60; experiment: MIC, agar dilution method, pH 7.2; format: cell-based; settings: 3020Y60; pH 7.2; Klebsiella pneumoniae 3020 Y-60; 1**: gentamicin, producing adenylsynthetase; read-out: Minimum inhibition concentration (MIC)
Procedure: as §1, §4

[23] = tested on: Escherichia coli 57R/W677; experiment: MIC, agar dilution method, pH 7.2; format: cell-based; settings: 57R/W677, pH 7.2, read-out: Minimum inhibition concentration (MIC)
Procedure: as §1, §4

[24] = tested on: Klebsiella pneumoniae KY4275 ATCC10031; experiment: MIC, agar dilution method, pH 8.0; format: cell-based; settings: ATCC10031; pH 8.0; Klebsiella pneumoniae KY4275; read-out: Minimum inhibition concentration (MIC), KP
Procedure: as §1
K.P.: Klebsiella pneumoniae KY4275 ATCC10031.

With `CN[C@H]1[C@@H](O)[C@H](O[C@H]2O[C@H]([C@H](C)N)CC[C@H]2N)[C@@H](N)[C@H](O)[C@@H]1OC` [Compound 1, fortimicin B] as the compound, how does the MIC [1] read?
Its MIC is 12.5 µg/mL (≈ 35.9 µM).

And the MIC [2]?
Its MIC is greater than 100 µg/mL.

And the MIC [3]?
The MIC was greater than 100 µg/mL.

What about the MIC [4] of the same compound?
Its MIC is greater than 100 µg/mL.

What about the Antibacterial activity (various microorganisms) of the same compound?
Its Antibacterial activity is “not as good as the other factors”.

And the MIC [5]?
Its MIC is 25 µg/mL (≈ 71.7 µM).

And the MIC [6]?
Its MIC is 100 µg/mL (≈ 287 µM).

And the MIC (Proteus vulgaris JJ)?
The MIC was greater than 100 µg/mL.

What about the MIC [7] of the same compound?
The MIC was 100 µg/mL (≈ 287 µM).

What about the MIC [8] of the same compound?
The MIC was greater than 100 µg/mL.

And the MIC (Shigella sonnei ATCC9290)?
Its MIC is greater than 100 µg/mL.

What about the MIC [9] of the same compound?
Its MIC is 100 µg/mL (≈ 287 µM).

What about the MIC (Escherichia coli NIHTC-2) of the same compound?
The MIC was greater than 100 µg/mL.

What about the MIC [10] of the same compound?
Its MIC is greater than 100 µg/mL.

What about the MIC [11] of the same compound?
The MIC was greater than 100 µg/mL.

What about the MIC [12] of the same compound?
Its MIC is greater than 100 µg/mL.

And the MIC [13]?
The MIC was 100 µg/mL (≈ 287 µM).

What about the MIC [14] of the same compound?
Its MIC is 12.5 µg/mL (≈ 35.9 µM).

What about the MIC (Eschericihia coli 3100) of the same compound?
Its MIC is 100 µg/mL (≈ 287 µM).

And the MIC (Providencia sp 164)?
The MIC was greater than 100 µg/mL.

What about the MIC (Serratia marcescens 1065) of the same compound?
The MIC was greater than 100 µg/mL.

And the MIC [15]?
Its MIC is greater than 100 µg/mL.

And the MIC [16]?
Its MIC is greater than 100 µg/mL.

And the MIC [17]?
The MIC was greater than 100 µg/mL.

What about the MIC [18] of the same compound?
Its MIC is greater than 100 µg/mL.

And the MIC (Bacillus subtilis KY4273)?
Its MIC is 12.5 µg/mL (≈ 35.9 µM).

And the MIC [19]?
The MIC was 25 µg/mL (≈ 71.7 µM).

What about the MIC [20] of the same compound?
Its MIC is 50 µg/mL (≈ 143 µM).

And the MIC (Escherichia coli 76-2)?
Its MIC is greater than 100 µg/mL.

What about the MIC [21] of the same compound?
Its MIC is greater than 100 µg/mL.

And the MIC [22]?
Its MIC is greater than 100 µg/mL.

And the MIC [23]?
The MIC was greater than 100 µg/mL.

And the MIC [24]?
The MIC was 50 µg/mL (≈ 143 µM).

Reference: patent US4220755A, “Fortimicin B derivatives and process for production thereof” (Abbott Laboratories, priority 1976, dated 1980)
